# Measurements: PMC6150212, “New Biflavonoids with α-Glucosidase and Pancreatic Lipase Inhibitory Activities from Boesenbergia rotunda” (Molecules : A Journal of Synthetic Chemistry and Natural …, 2017)
# Where two headings read alike, the source gives them in different places.
# Key:
# [1] = molecular target: Yeast α-glucosidase enzyme; experiment: α-Glucosidase inhibitory activity assay (PNPG hydrolysis); assay type: biochemical
# Experimental: (§1) Optical rotations were obtained with a Perkin-Elmer 341 polarimeter (Boston, MA, USA). UV spectra were measured on a Milton Roy Spectronic 300 Array spectrophotometer, and IR was recorded on a Perkin-Elmer FT-IR 1760x spectrophotometer (Boston, MA, USA). High-resolution electrospray ionization mass spectra (HR-ESI-MS) were recorded with a Bruker micro TOF mass spectrometer (Billerica, MA, USA). NMR spectra were obtained with a Bruker Avance DPX-300 FT-NMR spectrometer (Billerica, MA, USA). Vacuum liquid chromatography (VLC) and column chromatography (CC) were performed on silica gel 60 (Merck, 70–230 µm, Darmstadt, Germany), silica gel 60 (Merck, […]) or Sephadex LH-20 (Pharmacia, Piscataway, NJ, USA). Yeast α-glucosidase enzyme, p-nitrophenol-α-D-glucopyranoside, pancreatic lipase, and 4-methylumbelliferyl oleate were purchased from Sigma Chemical, Inc. (St. Louis, MO, USA), and acarbose from Fluka Chemical (Buchs, Switzerland).
# (§2) The assay was based on the capacity of the sample to inhibit the hydrolysis of p-nitrophenyl-α-D-glucoside (PNPG) by α-glucosidase to release p-nitrophenol (PNP), a yellow color agent that can be monitored at 405 nm. Briefly, 10 μL of sample solution and 40 μL of 0.1 unit/mL α-glucosidase were incubated at 37 °C for 10 min. Then, 50 μL of 2 mM PNPG was added, and the mixture was further incubated at 37 °C for 20 min. One hundred microliters of 1 mM Na2CO3 was added, and the progress of the enzyme inhibition was monitored by measuring the absorbance at 405 nm. Acarbose was used as a positive control.
# [2] = tested on: Yeast α-glucosidase enzyme; experiment: Kinetic study of α-glucosidase inhibition (Lineweaver-Burk and secondary plots); assay type: biochemical; conditions: for Mode of inhibition of α-glucosidase / Km: Lineweaver-Burk plot; for Ki: from secondary plot, read-out: α-Glucosidase inhibition constant (Ki); for Km: PNPG substrate, read-out: Michaelis-Menten constant, Km (x-axis intersection), α-glucosidase
# Experimental: as §2
# (§3) An enzyme kinetic analysis was performed based on the α-glucosidase or lipase inhibition assay as described above. The PNPG concentrations varied from 1 to 4 mM, and the 4-MUO concentrations varied from 0.063 to 1 mM in the absence or presence of the test compounds for kinetic assays of α-glucosidase and lipase, respectively. The inhibition mode was determined by double-reciprocal Lineweaver-Burk plot (1/V vs. 1/[S]). In order to estimate the Ki value, slopes of double-reciprocal lines were used to construct a secondary plot, and Ki was calculated from the line equation of the plot.
# [3] = molecular target: T1, lipase from porcine pancreas (Type II) (Sus scrofa, UniProt P00591); experiment: Lipase inhibitory activity assay (4MUO substrate); assay type: biochemical
# T1 construct: lipase from porcine pancreas (Type II); purchased Sigma Chemical, Inc. (St. Louis, MO, USA); host or cells: porcine pancreas
# T1 sequence (P00591 1-450): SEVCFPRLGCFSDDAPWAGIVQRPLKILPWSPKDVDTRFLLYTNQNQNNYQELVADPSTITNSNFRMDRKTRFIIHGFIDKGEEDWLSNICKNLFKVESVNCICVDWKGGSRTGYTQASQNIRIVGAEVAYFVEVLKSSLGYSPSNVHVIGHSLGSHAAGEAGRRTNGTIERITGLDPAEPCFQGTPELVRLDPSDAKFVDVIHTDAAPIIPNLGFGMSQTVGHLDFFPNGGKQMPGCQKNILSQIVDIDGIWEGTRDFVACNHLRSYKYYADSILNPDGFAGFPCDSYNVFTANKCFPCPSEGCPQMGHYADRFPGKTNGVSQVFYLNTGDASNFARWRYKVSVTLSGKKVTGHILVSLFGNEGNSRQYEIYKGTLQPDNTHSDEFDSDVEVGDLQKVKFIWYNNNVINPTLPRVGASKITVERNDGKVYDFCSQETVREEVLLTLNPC
# Experimental: as §1
# (§4) The lipase inhibitory activity was assessed by measuring the amount of 4-methylumbelliferone (4MU), using 4-methylumbelliferyl oleate (4MUO) as substrate. The assay was modified from a previously reported method. In brief, 25 μL of a blank, plant extract vehicle, or a sample solution and 50 μL of 0.5 mM 4MUO in buffer consisting of 13 mM Tris-HCl, 150 mM NaCl, and 1.3 mM CaCl2 (pH 8.0), were mixed in 96-well microtiter plate. Twenty-five microliters of lipase from porcine pancreas (Type II), prepared at 0.5 mg/mL in the same buffer, was then added to start the enzyme reaction. After incubation at room temperature for 30 min, 100 μL of 0.1 M sodium citrate (pH 4.2) was added to stop the reaction. Fluorescence, corresponding to released 4MU, was then measured with excitation and emission wavelengths of 355 and 460 nm, respectively.
# [4] = tested on: high-fat-diet (HFD)-induced obesity; design: method as in PMID 22312299, PMID 21320266; conditions: mice; by activating AMPK; cited from earlier work
# [5] = molecular target: T1, lipase from porcine pancreas (Type II); experiment: Kinetic study of lipase inhibition (Lineweaver-Burk and secondary plots); assay type: biochemical; conditions: for Mode of inhibition of lipase: Lineweaver-Burk plot; for Ki: from secondary plot
# Experimental: as §4, §3
IC50 [1] [µM],α-Glucosidase % Inhibition (at 20 µg/mL) [1] [%],inhibition at 20 µg/mL [3] [%],Molecule,other results
–,10.0 ± 2.9,7.9 ± 0.8,"COc1cc(O)c2c(c1)O[C@H](c1ccccc1)CC2=O [Compound 1, Pinostrobin]",–
7.5 ± 0.6,97.8 ± 0.8,75.2 ± 1.1,"COc1cc(O)cc(O)c1C(=O)C1C(CC=C(C)C)C(C)=CCC1c1ccccc1 (stereo not shown) [Compound 4, Isopanduratin A]",Mode of inhibition of lipase [5]: mixed-type; Ki [5]: 5.79 µM; IC50 [3]: 15.1 ± 3.3 µM
–,19.8 ± 0.1,3.7 ± 1.3,"O=C1C[C@@H](c2ccccc2)Oc2cc(O)cc(O)c21 [Compound 5, Pinocembrin]",–
–,19.7 ± 0.9,7.7 ± 1.9,"COc1cc(O)cc(O)c1C(=O)/C=C/c1ccccc1 [Compound 6, Cardamonin]",–
2.4 ± 0.4,100.0 ± 0.0,69.1 ± 1.6,"COc1cc(O)c(C(=O)CC(c2ccccc2)c2c(O)cc3c(c2O)C(=O)CC(c2ccccc2)O3)c(O)c1 (stereo not shown) [Compound 9, rotundaflavanochalcone]",Mode of inhibition of lipase [5]: non-competitive; Ki [5]: 3.55 µM; Mode of inhibition of α-glucosidase [2]: non-competitive; Km [2]: 470 µM; Ki [2]: 7.19 µM; IC50 [3]: 25.8 ± 2.6 µM
3.4 ± 0.9,100.0 ± 0.2,67.8 ± 1.3,"COc1cc(O)cc(O)c1C(=O)CC(c1ccccc1)c1c(O)cc2c(c1O)C(=O)CC(c1ccccc1)O2 (stereo not shown) [Compound 12, iso-rotundaflavanochalcone]",IC50 [3]: 30.1 ± 2.3 µM
1.3 ± 0.2,100.0 ± 0.1,80.5 ± 0.6,"O=C(CC(c1ccccc1)c1c(O)cc2c(c1O)C(=O)CC(c1ccccc1)O2)c1c(O)cc(O)cc1O (stereo not shown) [Compound 13, de-O-methyl rotundaflavanochalcone]",IC50 [3]: 10.6 ± 1.2 µM
–,20.9 ± 2.1,44.7 ± 1.7,"COc1cc(O)cc2c1C(=O)CC(c1ccc(O)cc1)O2 (stereo not shown) [Compound 15, 4′-7-Dihydroxy-5-methoxyflavanone]",–

# Second part, the molecule before the results:
Molecule,IC50 [1] [µM],α-Glucosidase % Inhibition (at 20 µg/mL) [1] [%],inhibition at 20 µg/mL [3] [%],other results
"C[C@H]1O[C@H](O[C@H]2[C@H](O)[C@@H](O)[C@@H](O[C@H]3[C@H](O)[C@@H](O)C(O)O[C@@H]3CO)O[C@@H]2CO)[C@H](O)[C@@H](O)[C@@H]1N[C@H]1C=C(CO)[C@@H](O)[C@H](O)[C@H]1O (stereo partly shown) [Acarbose, reference compound]",1160 ± 23,–,–,IC50 ([1]; rounded value): 1200 µM; Mode of inhibition of α-glucosidase [2]: competitive; Ki [2]: 167 µM
"CC(C)=CCC/C(C)=C/CO [Compound 2, Geraniol]",–,9.6 ± 4.0,30.6 ± 2,–
"COc1cc(O)c(C(=O)[C@@H]2[C@H](CC=C(C)C)C(C)=CC[C@H]2c2ccccc2)c(O)c1 [Compound 3, Panduratin A]",12.7 ± 1.3,94.7 ± 0.4,72.3 ± 0.1,Effect on high-fat-diet (HFD)-induced obesity [4]: attenuate high-fat-diet (HFD)-induced obesity; IC50 [3]: 17.1 ± 3.7 µM
"CC(C)=CC[C@@H]1C(C)=CC[C@@H](c2ccccc2)[C@@H]1C(=O)c1c(O)cc(O)cc1O [Compound 7, Hydroxypanduratin A]",4.6 ± 0.4,98.5 ± 0.4,49.3 ± 2.7,Mode of inhibition of α-glucosidase [2]: non-competitive; Km [2]: 460 µM; Ki [2]: 4.03 µM
"COc1cc(/C=C/c2ccccc2)oc(=O)c1 [Compound 8, 5,6-Dehydrokawain]",–,9.5 ± 2.5,33.7 ± 1,–
"O=C(CCc1ccccc1)c1c(O)cc(O)cc1O [Compound 10, 2′,4′,6′-Trihydroxydihydrochalcone]",32 ± 2.2,88.1 ± 0.9,48.7 ± 3.5,–
"COc1cc(O)cc(O)c1C(=O)/C=C/c1ccc(O)cc1 [Compound 14, 4,4′,6′-trihydroxy-2′-methoxychalcone]",–,97.1 ± 0.5,70.9 ± 2,–
"CCCCCCCCCCC[C@@H](C[C@@H]1OC(=O)[C@H]1CCCCCC)OC(=O)[C@H](CC(C)C)NC=O [Orlistat, reference compound]",–,–,–,Mode of inhibition of lipase [5]: competitive
Alpinetin [Compound 11],–,7.0 ± 2.0,–,Lipase % Inhibition (at 20 µg/mL) ([3]; at 20 µg/mL): 8.0 ± 1.9%
